The assay addresses human P2X7 receptor (Homo sapiens, UniProt Q99572, R270H/Y155H). Briefly: Evaluation of human P2X7 receptor inhibitory activity (Yo-Pro uptake, BzATP stimulation, FLIPR TETRA). Format: cell-based. The procedure, abridged:
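Yo-Pro dye uptake triggered by BzATP was monitored by FLIPR in human P2X7-transfected 1321N1 cells (SNP variant) in HEPES-buffered HBSS, pH 7.4-7.5. Compound was dispensed 8 min post-stimulation, then signal read for 20 min; IC50 derived logistically from inhibition of the fluorescence range.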

The mark [1] stands for this setting: 1321N1 cells stably expressing human P2X7 receptor, BzATP stimulation, Yo-Pro uptake, read-out: IC50 (antagonistic activity for the human P2X7 receptor), class symbol.
The mark [2] stands for this setting: antagonistic activity for the human P2X7 receptor, read-out: IC50.
Where [3] appears, read: 1321N1 cells stably expressing human P2X7 receptor, BzATP stimulation, Yo-Pro uptake, read-out: IC50 (antagonistic activity for the human P2X7 receptor).

The values below come from patent US10774051B2, “6-membered heterocyclic derivatives and pharmaceutical composition comprising the same” (Shionogi & Co., Ltd., priority 2015, dated 2020).

Where two headings read alike, the source gives them in different places.

A word on the IC50: it is the concentration that inhibits the measured activity by half. Turning to `COc1cn(Cc2cccc(F)c2)c(Nc2cccc(C)c2C)nc1=O` [Compound I-0323], under setting [1], the IC50 is less than 10 nM.

As to `COc1cn(Cc2ccccc2)c(Nc2cc(C)c(Cl)cc2F)nc1=O` [Compound I-0801], the IC50 under setting [2] was 100 to 500 nM.

Take `COc1cn(Cc2ccc(F)c(Cl)c2)c(Nc2cc(C)ccc2C)nc1=O` [Compound I-0334]: the IC50 under setting [1] was less than 10 nM.

Turning to `CCc1cc(Cl)ccc1Nc1nc(=O)c(OC)cn1Cc1ccc(F)c(Cl)c1` [Compound I-0545], the IC50 under setting [1] was less than 10 nM.

Regarding `CCOc1ccc(Nc2nc(=O)c(OC)cn2Cc2ccc(F)c(F)c2)c(C)c1` [Compound I-0678], the IC50 under setting [2] is less than 10 nM.

As to `CCc1ccc(F)cc1Nc1nc(=O)c(OC)cn1Cc1cccc(Cl)c1` [Compound I-0566], under setting [1], the IC50 was 10 to 100 nM.

As to `COc1cn(Cc2cc(F)cc(F)c2)c(Nc2cc(-n3cccc3)ccc2C)nc1=O` [Compound I-0655], the IC50 under setting [2] lay in the range of 10 to 100 nM.

For `COc1cn(Cc2ccc(F)c(Cl)c2)c(Nc2cc(-c3cccnc3)ccc2C)nc1=O` [Compound I-0696], the IC50 under setting [2] was less than 10 nM.

Take `COc1cn(Cc2cc(F)cc(F)c2)c(Nc2ccc(Cl)cc2C)nc1=O` [Compound I-0563]: the IC50 under setting [1] was in the range of 10 to 100 nM.

As to `COc1cc(C)c(Nc2nc(=O)c(F)cn2Cc2cc(F)c(F)c(F)c2)cc1C` [Compound I-1180], under setting [2], the IC50 was less than 10 nM.

As for `COc1cnc(Nc2cccc(Cl)c2C)n(Cc2ccc(F)c(F)c2)c1=O` [Compound I-0973], the IC50 under setting [2] was in the range of 100 to 500 nM.

For `Cc1c(CO)cccc1Nc1nc(=O)c(F)cn1Cc1cc(F)c(F)c(F)c1` [Compound I-1177], under setting [2], the IC50 is less than 10 nM.

`CCc1c(Nc2nc(=O)c(OC)cn2Cc2cccc(Cl)c2)cc(OC)cc1OC` [Compound I-0362]: the IC50 under setting [1] was less than 10 nM.

As for `COc1cc(Nc2nc(=O)c(OC)cn2Cc2cc(F)cc(F)c2)c(C)cc1Cl` [Compound I-0510], the IC50 under setting [1] is less than 10 nM.

As to `COc1cn(Cc2ccccc2OC(F)F)c(Nc2cccc(Cl)c2C)nc1=O` [Compound I-0446], under setting [1], the IC50 is less than 10 nM.

Take `COc1cc(C)cc(Nc2nc(=O)c(OC)cn2Cc2ccc(F)c(Cl)c2)c1C` [Compound I-0460]: the IC50 under setting [1] fell in the range of 10 to 100 nM.

As for `COc1cn(Cc2ccc(F)c(Cl)c2)c(Nc2cc(-c3ncco3)ccc2C)cc1=O` [Compound I-0953], the IC50 under setting [3] was 25 nM.

For the compound `Cc1ccc(Cl)cc1Nc1nc(=O)c(F)cn1Cc1cc(F)c(F)c(F)c1` [Compound I-1209], the IC50 under setting [2] was less than 10 nM.

With `COc1cn(Cc2ccc(F)cc2)c(Nc2cc(C)c(F)cc2C)nc1=O` [Compound I-0443], the IC50 under setting [1] is less than 10 nM.

For the compound `COc1cn(Cc2ccc(F)c(F)c2)c(Nc2ccccc2C)nc1=O` [Compound I-0685], under setting [2], the IC50 was 10 to 100 nM.

`COc1cn(Cc2cc(F)cc(F)c2)c(Nc2cc(OC(F)(F)F)ccc2C)nc1=O` [Compound I-0695]: the IC50 under setting [2] fell in the range of 10 to 100 nM.

Take `Cc1ccc(CO)cc1Nc1nc(=O)c(F)cn1Cc1ccc(F)c(F)c1` [Compound I-1012]: the IC50 under setting [2] is less than 10 nM.

Consider `COc1cn(Cc2ccc(F)c(Cl)c2)c(Nc2cc(C(C)(C)C)ccc2C)nc1=O` [Compound I-0501], for which the IC50 under setting [1] was 10 to 100 nM.

Take `COc1cn(Cc2cccc(Cl)c2)c(Nc2cccc(OC(F)F)c2C)nc1=O` [Compound I-0479]: the IC50 under setting [1] fell in the range of 10 to 100 nM.

With `COc1cn(Cc2ccccc2)c(Nc2cc(Cl)c(Cl)cc2C)nc1=O` [Compound I-0423], under setting [1], the IC50 lay in the range of 10 to 100 nM.

Consider `COc1cn(Cc2cc(F)cc(Cl)c2)c(Nc2cc(-c3ccc(C)o3)ccc2C)nc1=O` [Compound I-0768], for which the IC50 under setting [2] is 10 to 100 nM.

For the compound `COc1cn(Cc2ccccc2)c(Nc2cc(C(C)(C)O)ccc2C)nc1=O` [Compound I-0731], the IC50 under setting [2] fell in the range of 10 to 100 nM.

For `COc1cnc(Nc2cc(C)cc3[nH]ccc23)n(Cc2ccc(F)c(Cl)c2)c1=O` [Compound I-0989], under setting [3], the IC50 worked out at 300 nM.

As for `COc1cn(Cc2ccccc2OC(F)F)c(Nc2cccc(Cl)c2C)nc1=O` [Compound I-0421], the IC50 under setting [1] was in the range of 10 to 100 nM.

Turning to `COc1cn(Cc2cc(F)c(F)c(F)c2)c(Nc2cc(-c3cscn3)ccc2C)nc1=O` [Compound I-0802], under setting [2], the IC50 is less than 10 nM.

Regarding `COc1cn(Cc2cc(F)cc(Cl)c2)c(Nc2cc(-c3cscn3)ccc2C)nc1=O` [Compound I-0752], the IC50 under setting [2] is 10 to 100 nM.

`COc1cn(Cc2ccc(F)c(F)c2)c(Nc2cc(OC3CC3)ccc2C)nc1=O` [Compound I-0890]: under setting [2], the IC50 lay within 10 to 100 nM.

Consider `COc1cn(Cc2ccc(F)cc2)c(Nc2cccc(Cl)c2C)nc1=O` [Compound I-0001], for which the IC50 under setting [1] was less than 10 nM.

On to `COc1cccc(Nc2nc(=O)c(OC)cn2Cc2ccc(F)c(Cl)c2)c1Cl` [Compound I-0683], for which, under setting [2], the IC50 was less than 10 nM.

As to `CCOc1cc(Nc2nc(=O)c(OC)cn2Cc2cc(F)cc(F)c2)c(C)cc1F` [Compound I-0920], the IC50 under setting [2] lay within 10 to 100 nM.

Regarding `CCc1ccc(F)c(Nc2nc(=O)c(F)cn2Cc2cc(F)c(F)c(F)c2)c1` [Compound I-1218], the IC50 under setting [2] is less than 10 nM.

On to `Cn1ccc2c(Nc3nc(=O)c(F)cn3Cc3cc(F)c(F)c(F)c3)cccc21` [Compound I-1018], for which, under setting [2], the IC50 is less than 10 nM.

As to `CCc1ccc(CC)c(Nc2nc(=O)c(OC)cn2Cc2ccccc2)c1` [Compound I-0211], the IC50 under setting [1] was less than 10 nM.

Regarding `COc1ccccc1CNc1nc(=O)c(OC)cn1Cc1ccccc1` [Compound I-0113], under setting [1], the half-inhibitory concentration (IC50) was 500 to 1000 nM.

As for `COc1cn(Cc2ccccc2)c(Nc2cc(-c3nc4ncccc4o3)ccc2C)nc1=O` [Compound I-0416], under setting [1], the IC50 lay in the range of 10 to 100 nM.

Turning to `Cc1cc(Nc2nc(=O)c(F)cn2Cc2cc(F)cc(F)c2)c(Cl)cc1F` [Compound I-1224], the IC50 under setting [2] is less than 10 nM.

On to `Cc1cc(OC(F)F)c(C)cc1Nc1nc(=O)c(F)cn1Cc1cc(F)cc(F)c1` [Compound I-0836], for which, under setting [3], the IC50 amounted to 2 nM.

Regarding `COc1cn(Cc2cc(F)cc(F)c2)c(Nc2cc(S(C)(=O)=O)c(C)cc2C)nc1=O` [Compound I-0551], the IC50 under setting [1] lay in the range of 10 to 100 nM.

For the compound `COc1cn(Cc2ccccc2)c(Nc2cc(-c3cccn(C)c3=O)c(F)cc2C)nc1=O` [Compound I-0590], under setting [2], the IC50 is 10 to 100 nM.

As for `Cc1cc2c(cc1Nc1nc(=O)c(F)cn1Cc1ccc(F)c(Cl)c1)CCO2` [Compound I-1073], the IC50 under setting [2] is less than 10 nM.

Turning to `COc1cn(Cc2ccccc2)c(Nc2cccc3c2ccn3C)nc1=O` [Compound I-0117], the IC50 under setting [1] lay in the range of 10 to 100 nM.

With `COc1cn(Cc2ccc(F)c(F)c2)c(Nc2cccc3c(=O)[nH]ccc23)nc1=O` [Compound I-0689], the IC50 under setting [2] lay in the range of 10 to 100 nM.

As to `COc1cn(Cc2ccc(F)c(Cl)c2)c(Nc2cc3c(cc2C)OCCO3)nc1=O` [Compound I-0292], the IC50 under setting [1] was in the range of 10 to 100 nM.

Regarding `COc1cn(Cc2ccc(F)c(Cl)c2)c(Nc2cc(-c3cnccn3)ccc2C)nc1=O` [Compound I-0664], the IC50 under setting [2] is less than 10 nM.

As for `COc1cn(Cc2cccc(F)c2)c(Nc2cccc(Cl)c2C)nc1=O` [Compound I-0039], the IC50 under setting [1] was in the range of 10 to 100 nM.

For the compound `COc1cc(C)c(Nc2nc(=O)c(OC)cn2Cc2ccccc2)cc1OC` [Compound I-0182], under setting [1], the IC50 is less than 10 nM.

`COc1cn(Cc2ccccc2)c(Nc2cc(-n3cccc3)ccc2C)nc1=O` [Compound I-0239]: the IC50 under setting [1] was 100 to 500 nM.

With `COc1cn(Cc2cccc(Cl)c2)c(Nc2cc(C)c(C)cc2C)nc1=O` [Compound I-0165], the 50% inhibitory concentration (IC50) under setting [1] was less than 10 nM.

For the compound `Cc1ccc(-c2nnco2)cc1Nc1nc(=O)c(F)cn1Cc1cc(F)c(F)c(F)c1` [Compound I-1216], the IC50 under setting [3] is 6 nM.

Consider `COc1ccc(Nc2nc(=O)cnn2Cc2ccccc2)c(C)c1` [Compound I-1276], for which, under setting [2], the IC50 was in the range of 10 to 100 nM.

For the compound `COc1cn(Cc2cc(F)c(F)c(F)c2)c(Nc2cc(N3CCOCC3)ccc2C)nc1=O` [Compound I-0931], under setting [2], the IC50 was 10 to 100 nM.

For `COc1cn(Cc2ccc(F)c(Cl)c2)c(Nc2cccc(SC)c2C)nc1=O` [Compound I-0430], the IC50 under setting [1] was less than 10 nM.

Consider `COc1cn(Cc2ccc(F)c(Cl)c2)c(Nc2cccc3[nH]c(=O)ccc23)nc1=O` [Compound I-0397], for which the IC50 under setting [3] came to 67 nM.

In the case of `COc1cn(Cc2ccc(F)c(Cl)c2)c(Nc2cccc(N(C)C)c2C)nc1=O` [Compound I-0402], the IC50 under setting [1] was less than 10 nM.

Regarding `COc1cn(Cc2ccccc2)c(Nc2cccc(Cl)c2C)nc1=O` [Compound I-0037], the IC50 under setting [1] is less than 10 nM.

In the case of `CCc1cc(Br)ccc1Nc1nc(=O)c(OC)cn1Cc1ccccc1` [Compound I-0101], under setting [1], the IC50 was 10 to 100 nM.

Turning to `COc1cn(Cc2ccc(F)c(F)c2)c(Nc2cc(C)cc3[nH]ccc23)nc1=O` [Compound I-0645], the IC50 under setting [2] was in the range of 10 to 100 nM.

For `Cc1c(F)cccc1Nc1nc(=O)c(F)cn1Cc1ccc(F)c(Cl)c1` [Compound I-1213], the IC50 under setting [2] was less than 10 nM.

Regarding `COc1ccc(C)c(Nc2nc(=O)c(OC)cn2Cc2cc(F)cc(F)c2)c1` [Compound I-0408], the IC50 under setting [1] was in the range of 10 to 100 nM.

Turning to `COc1cn(Cc2cc(F)cc(F)c2)c(Nc2cc(C)c(OC(F)(F)F)cc2C)nc1=O` [Compound I-0924], under setting [3], the IC50 was found to be 17 nM.

Regarding `COc1cn(Cc2ccc(F)c(Cl)c2)c(Nc2cc3c(cc2C)OC(F)(F)C(F)(F)O3)nc1=O` [Compound I-0823], the IC50 under setting [2] lay within 100 to 500 nM.

Turning to `CCc1cc(F)ccc1Nc1nc(=O)c(OC)cn1Cc1ccc(F)c(Cl)c1` [Compound I-0420], the IC50 under setting [1] is 10 to 100 nM.

Regarding `COCc1cn(Cc2cc(F)c(F)c(F)c2)c(Nc2ccc(OC)cc2C)nc1=O` [Compound I-1140], under setting [2], the IC50 is 10 to 100 nM.

Turning to `CCc1ccc(Cl)cc1Nc1nc(=O)c(OC)cn1Cc1ccc(F)c(Cl)c1` [Compound I-0389], the IC50 under setting [1] was less than 10 nM.

In the case of `Cc1cc2c(cc1Nc1nc(=O)c(C#N)cn1Cc1cc(F)c(F)c(F)c1)COC2` [Compound I-1130], the IC50 under setting [2] lay in the range of 10 to 100 nM.

In the case of `COc1cn(Cc2cc(F)cc(Cl)c2)c(Nc2cc(-c3ncco3)ccc2C)nc1=O` [Compound I-0668], the IC50 under setting [2] was 10 to 100 nM.
